From PubChem BioAssay AID1259407 (Chemical Carcinogenesis Research Information System (CCRIS), 2018)
The source made the active and inactive calls. How the calls were made is not given here.

Tested on: CCRIS mutagenicity, Ames/micronucleus/aberration tests
Experiment: CCRIS mutagenicity studies

CCOS(C)(=O)=O
mutagenic call (End Point: IN VITRO MICRONUCLEUS, Test System: CHL/IU CELLS, Metabolic Activation: NONE): active; positive
mutagenic call (End Point: IN VITRO MICRONUCLEUS, Test System: V79 CELLS, Metabolic Activation: NONE): active; positive
mutagenic call (End Point: In vitro micronucleus, Test System: Chinese Hamster Ovary (CHO-WBL) cells, Metabolic Activation: None): active; positive (p<0.01)
mutagenic call (End Point: In vivo micronucleus, Test System: Micronucleated hepatocytes, Species: Rat, Strain/Sex: F344/Male, Route: Intraperitoneal): inactive; negative
mutagenic call (End Point: In vivo micronucleus, Test System: Micronucleated hepatocytes, Species: Rat, Strain/Sex: F344/Male, Route: Oral): inactive; negative
mutagenic call (Test System: AMES SALMONELLA TYPHIMURIUM, Strain/Indicator: TA98, Metabolic Activation: NONE, Method: SPIRAL ASSAY): inactive; negative
mutagenic call (Test System: AMES SALMONELLA TYPHIMURIUM, Strain/Indicator: TA98, Metabolic Activation: NONE, Method: STANDARD PLATE): inactive; negative
mutagenic call (Test System: AMES SALMONELLA TYPHIMURIUM, Strain/Indicator: TA98, Metabolic Activation: RAT, LIVER, S-9, AROCLOR 1254, Method: SPIRAL ASSAY): active; positive
mutagenic call (Test System: AMES SALMONELLA TYPHIMURIUM, Strain/Indicator: TA100, Metabolic Activation: NONE, Method: SPIRAL ASSAY): active; positive
mutagenic call (Test System: AMES SALMONELLA TYPHIMURIUM, Strain/Indicator: TA100, Metabolic Activation: NONE, Method: STANDARD PLATE): active; positive
mutagenic call (Test System: AMES SALMONELLA TYPHIMURIUM, Strain/Indicator: TA100, Metabolic Activation: RAT, LIVER, S-9, AROCLOR 1254, Method: SPIRAL ASSAY): inactive; negative
mutagenic call (Test System: AMES SALMONELLA TYPHIMURIUM, Strain/Indicator: TA100, Metabolic Activation: RAT, LIVER, S-9, AROCLOR 1254, Method: STANDARD PLATE): active; positive
mutagenic call (Test System: AMES SALMONELLA TYPHIMURIUM, Strain/Indicator: TA1535, Metabolic Activation: NONE, Method: SPIRAL ASSAY): active; positive
mutagenic call (Test System: AMES SALMONELLA TYPHIMURIUM, Strain/Indicator: TA1535, Metabolic Activation: NONE, Method: STANDARD PLATE): active; positive
mutagenic call (Test System: AMES SALMONELLA TYPHIMURIUM, Strain/Indicator: TA1535, Metabolic Activation: RAT, LIVER, S-9, AROCLOR 1254, Method: SPIRAL ASSAY): active; positive
mutagenic call (Test System: AMES SALMONELLA TYPHIMURIUM, Strain/Indicator: TA1535, Metabolic Activation: RAT, LIVER, S-9, AROCLOR 1254, Method: STANDARD PLATE): active; positive
mutagenic call (Test System: AMES SALMONELLA TYPHIMURIUM, Strain/Indicator: TA1537, Metabolic Activation: NONE, Method: SPIRAL ASSAY): inactive; negative
mutagenic call (Test System: AMES SALMONELLA TYPHIMURIUM, Strain/Indicator: TA1537, Metabolic Activation: NONE, Method: STANDARD PLATE): active; positive
mutagenic call (Test System: AMES SALMONELLA TYPHIMURIUM, Strain/Indicator: TA1537, Metabolic Activation: RAT, LIVER, S-9, AROCLOR 1254, Method: SPIRAL ASSAY): inactive; negative
mutagenic call (Test System: AMES SALMONELLA TYPHIMURIUM, Strain/Indicator: TA1537, Metabolic Activation: RAT, LIVER, S-9, AROCLOR 1254, Method: STANDARD PLATE): active; positive
mutagenic call (Test System: AMES SALMONELLA TYPHIMURIUM, Strain/Indicator: TA1538, Metabolic Activation: RAT, LIVER, S-9, AROCLOR 1254, Method: STANDARD PLATE): active; positive
mutagenic call (Test System: AMES SALMONELLA TYPHIMURIUM, Strain/Indicator: YG7100, Metabolic Activation: NONE, Method: PREINCUBATION): inactive; negative
mutagenic call (Test System: AMES SALMONELLA TYPHIMURIUM, Strain/Indicator: YG7104, Metabolic Activation: NONE, Method: PREINCUBATION): active; positive
mutagenic call (Test System: AMES SALMONELLA TYPHIMURIUM, Strain/Indicator: YG7108, Metabolic Activation: NONE, Method: PREINCUBATION): active; positive
mutagenic call (Test System: AMES SALMONELLA TYPHIMURIUM, Strain/Indicator: YG7112, Metabolic Activation: NONE, Method: PREINCUBATION): active; positive
mutagenic call (Test System: AMES SALMONELLA TYPHIMURIUM, Strain/Indicator: YG7113, Metabolic Activation: NONE, Method: PREINCUBATION): active; positive
mutagenic call (Test System: AMES SALMONELLA TYPHIMURIUM, Strain/Indicator: YG7119, Metabolic Activation: NONE, Method: PREINCUBATION): inactive; negative
mutagenic call (Test System: CHINESE HAMSTER OVARY, Strain/Indicator: CHO-K1-BH4 (HGPRT)/6-THIOGUANINE, Metabolic Activation: NONE, Method: LIQUID SUSPENSION): active; positive
mutagenic call (Test System: CHINESE HAMSTER OVARY, Strain/Indicator: CHO-K1-BH4 (HGPRT)/6-THIOGUANINE, Metabolic Activation: NONE, Method: SUSPENSION/PLATE): active; positive
mutagenic call (Test System: CHINESE HAMSTER OVARY, Strain/Indicator: CHO-K1-BH4 (HGPRT), Metabolic Activation: NONE, Method: MONOLAYER): active; positive
